Measured values reported in PubChem BioAssay AID1626 (SRMLSC, 2009).

System: M. tuberculosis H37Rv growth inhibition
Assay: M. tuberculosis H37Rv growth inhibitors, H37Rv strain (AID 1626)
Conditions: for IC90: measured here: IC90 against H37Rv; for CC50: measured here: Vero cell cytotoxicity

Row | Structure (SMILES) | IC50 [µM] | IC90 [µM] | CC50 [µM]
1 | O=C(Oc1ccc2cc(Br)ccc2c1)c1cccnc1 | 1.38 | > 100 | > 40
2 | CS(=O)(=O)Nc1cccc2cccnc12 | 11.7 | 12.9 | > 40
3 | CCOC(=O)C(C)Sc1ncc(-c2ccc(Cl)cc2)cn1 (stereo unspecified) | 2.71 | 5.04 | 
4 | COc1ccc(NC2(C#N)CCCCC2)cc1 |  | > 100 | 
5 | O=C(CSc1nccc(=O)[nH]1)Nc1ccc(Br)c(Cl)c1 | 40.6 | > 100 | 
6 | Cc1cc(NC(=O)C2CCCC2)n(-c2nc3ccccc3[nH]2)n1 | 24.6 | > 100 | 
7 | Clc1ccc(-c2ccc(C=Nc3ccc(N4CCOCC4)cc3)o2)c(Cl)c1 |  | > 100 | 
8 | CCC/C(O)=C1\C(=O)CCCC1=NCCc1c(C)[nH]c2ccc(C)cc12 |  | > 100 | 
9 | Cc1c(CNC(=O)c2cnn3c2NC(c2ccc(Br)cc2)CC3C(F)(F)F)cnn1C (stereo unspecified) | 4.09 | 6.49 | 
10 | O=[N+]([O-])c1ccc(N=Nc2c(Cl)cc(O)cc2Cl)cc1 | 1.64 | 2.41 | 5.17
11 | Cc1ccc2nc(SCC(=O)Nc3ccc4c(c3)CCC4)[nH]c2c1 |  | > 100 | 
12 | O=S(=O)(Nc1ccn(-c2ccccc2)n1)c1ccc(Br)cc1 | 30.1 | > 100 | 
13 | Cc1cc(C)n(-c2nc(SCC(=O)O)c3c4c(sc3n2)COC(C)(C)C4)n1 | 9.72 | > 100 | > 40
14 | CCC(C)NC(=O)c1c(N)n(/N=C/c2ccccn2)c2nc3ccccc3nc12 (stereo unspecified) | 5.18 | 7.46 | > 40
15 | O=C(NCc1nnc2c3ccccc3c(-c3ccccc3)nn12)c1ccc(Cl)cc1 | 3.04 | 3.32 | > 40
16 | COc1cc(/C=C/C(=O)c2c(O)n(CCc3ccccc3)c(=O)[nH]c2=O)ccc1O | 7.57 | 11.3 | 20.2
17 | CC1CCCC(NC(=O)COC(=O)c2sc3ccccc3c2Cl)C1C (stereo unspecified) | 7.47 | > 100 | 
18 | O=C(NCc1cn(-c2ccccc2)nc1-c1ccccc1)c1cc([N+](=O)[O-])cc([N+](=O)[O-])c1 | 0.591 | 0.847 | > 40
19 | CCOc1ccc(NC(=O)CN2CCN(CC(=O)Nc3ccc(Cl)c(C(F)(F)F)c3)CC2)cc1 | 7.93 | 11.3 | 20.8
20 | Cc1ccc(C(=O)Nc2nc(-c3ccccn3)cs2)o1 | 2.56 | 6.19 | > 40
21 | O=C(Nc1cc(C(F)(F)F)cc(C(F)(F)F)c1)Nc1cnn(-c2ccc([N+](=O)[O-])cc2)c1C(F)(F)F | 0.676 | 0.938 | 2.76
22 | O=C(Nc1ccc(Cl)cc1)Nc1csc([N+](=O)[O-])c1 | 79.1 | > 100 | 
23 | O=C(Cn1nc(CNc2ccc(Cl)cc2)[n+]2c1CCCCC2)c1ccc(Br)cc1 | 4.63 | 7.74 | 
24 | Cc1ccc(Cc2cnc(N3C(=N)SC(C)C3=O)s2)cc1 (stereo unspecified) | 3.58 | 18.1 | > 40
25 | COc1ccc(NC(=O)CCCSc2ccccc2)cc1 |  | > 100 | 
26 | O=C(Nc1cc(Oc2ccccc2)cc([N+](=O)[O-])c1)C12CC3CC(C1)CC(n1cnc(Cl)n1)(C3)C2 | 4.19 | > 100 | > 40
27 | COc1cccc(C(=O)Nc2ccc(-c3nc4ccccc4o3)c(O)c2)c1 | 8.7 | > 100 | > 40
28 | Cn1nc(C(F)(F)F)c(-c2ccc(Br)cc2)c1NC(=O)c1cccnc1 |  | > 100 | > 40
29 | Cc1cc(C)c(-c2csc(NC(=O)/C=C/c3cccs3)n2)c(C)c1 | 4.66 | 8.18 | > 40
30 | COc1cc(CNCc2ccccn2)ccc1OCc1ccc(Cl)cc1Cl | 6.04 | 9.96 | > 40
